# Experimental data from patent US20250276996A1, “CATIONICALLY-ENFRAMED HIGH DENSITY AROMATIC PEPTIDES” (Research Foundation of the City University of New York, priority 2022, published 2025).
# “And” between values parts separate entries of the source, which are not always exact repeats. Equal entries are not always repeated. “Also recorded” adds a separate entry of the source. Non-standard residues stand in square brackets, D forms with d. Residues, ends and D or L forms follow the SMILES beside them. *: point of attachment. Biotin = O=C1N[C@H]2[C@H](CS[C@H]2CCCCC(=O)*)N1
# Tests used:
# [1] = test system: retinal ganglion cells and optic nerve; assay: Optic nerve protection with elevated intraocular pressure; assay type: in vivo, DBA/2J mice
# Method: A series of experiments were conducted to determine if biotin-HDAP2 preserves mitochondrial ultrastructure in retinal ganglion cells (RGC) axons, whether biotin-HDAP2 preserves the integrity of axons in the optic nerve and/or whether biotin-HDAP2 treatment improves RGC survival. To these ends, 100 DBA/2J mice (8 and 12 weeks old) were obtained with the goal of studying them at 6 and 12 months of age. A small number of animals were examined at 6 months, but they had not yet developed elevated intraocular pressure (IOP), and no differences were observed between treatment conditions in optic nerve appearance or retinal ganglion cell distribution. Therefore, further analysis was delayed until animals reached 10 months, when elevated IOP was reliably present.
# Optic nerves from all three experimental conditions (control, untreated and biotin-HDAP2-treated) have been embedded for ultrastructural analysis.
# Nerves were obtained from 10-month-old animals who had high IOP for at least 3 consecutive months. Differences between control, untreated and biotin-HDAP2-treated groups were striking and correlated closely with cumulative intraocular pressure (cIOP) exposure.
# All retinas in this study were stained with RBPMS, imaged using confocal microscopy, and RGCs were automatically counted using ImageJ. To assess the overall effect of biotin-HDAP2 treatment on RGC survival, RGC counts between biotin-HDAP2-treated and Untreated animals were compared across all available time points.
# [2] = test system: MDBK cells; assay: Cellular oxidative stress in serum-starved cells (CM-H2DCFDA); assay type: cell-based, bovine; conditions: 1 μM
# Method: MDBK cells incubated in serum free media for 5-7 days in the presence or absence of 1 μM of biotin-HDAP2. At the end of the incubation period, 100 nM CM-H2DCFDA (oxidative stress marker) was added to the cells and incubated for 30 minutes. Then, media was removed and cells were fixed in 4% PFA. Cells were then visualized using a fluorescent microscope (Nikon Eclipse-ci-SRS). Experiments were conducted 5 times in triplicate for each experimental condition.
# To measure the effects of biotin-HDAP2 on the mitochondrial potential and cellular oxidative stress, cells were cultured in DMEM/F12 without fetal bovine serum (FSB) in the presence or absence of biotin-HDAP2 (1 μM). […]
# Unless otherwise noted, data for all tissue culture experiments were collected from three independent trials, with each experiment done in triplicate. […] Photooxidation of the indicator dyes were minimized by using single exposures to the fluorescence for each field imaged. Fluorescence intensity was analyzed using ImageJ (NIH), and MTR and CM-H2DCFDA fluorescence were normalized to Hoechst fluorescence to account for differences in cell number in each field. […] All data are expressed as means±SEM.
# [3] = Nile Red fluorescence shift in POPC-CL liposomes; assay type: binding, bovine; conditions: 638 nm before the shift
# Method: The resulting multilamellar vesicles were vortexed lightly and sized into small unilamellar vesicles by heated bath sonication for 25 min. All liposomes were cooled to ambient temperature before use.
# Interactions between biotin-HDAP2 and Phospholipid liposomes measured by Nile Red fluorescence: The hydrophobicity of biotin-HDAP2 and phospholipids was examined by changes in the spectral fluorescence shift and intensity of Nile Red (NR, 10 μM). NR increases its intensity of fluorescence when combined with the hydrophobic environments of acyl chains of phospholipids, and produces a blue shift when hydrophobicity is increased. All experiments were done with 30 μM of either CL or POPC and 30 μM of biotin-HDAP2 in 10 mM Hepes (pH 7.4) to optimize the electrostatic interactions of peptides with phospholipids. The solvents used to dissolve the various phospholipids (chloroform, methanol, and ethanol) had negligible effects on the fluorescence spectra.
# [4] = Water solubility
structure (smiles),measurement,setting,value
"N=C(N)NCCC[C@@H](NC(=O)[C@H](Cc1ccccc1)NC(=O)[C@H](Cc1ccccc1)NC(=O)[C@@H](CCCNC(=N)N)NC(=O)CCCC[C@@H]1SC[C@@H]2NC(=O)N[C@@H]21)C(N)=O [biotin-HDAP2, Biotin-dArg-Phe-Phe-dArg-NH2] (Biotin-[dR]FF[dR]-NH2)",optic nerve axon morphology,"[1]; 10-month-old animals, high IOP at least 3 months",morphologically comparable to those of young controls
same,RGC counts (mean),"[1]; all available time points, n=23","26,267±14,440"
same,RGC counts compared with other groups,[1]; elevated cIOP,significantly higher RGC counts overall; also recorded: RGC counts similar to controls
same,mitochondrial ultrastructure in RGC axons (TEM),[1]; nerves exposed to high IOP,more numerous and exhibit preserved cristae and greater structural integrity
same,oxidative stress in starved cells,"[2]; serum free 5-7 days, 100 nM CM-H2DCFDA",prevented oxidative stress in starved cells
same,reduction in CM-H2DCFDA fluorescence compared to control,[2]; serum-free,> 80% and 80%
same,Nile Red emission after blue shift,[3],618 nm
same,water solubility,[4],water soluble
